In patent US20230123334A1, “AMINO LIPID COMPOUND, PREPARATION METHOD THEREFOR, AND APPLICATION THEREOF” (SHENZHEN SHENXIN BIOTECHNOLOGY CO., LTD., priority 2020, published 2023):

Tested on: HEK293 cells
Test: Preliminary screening as mRNA vectors, EGFP mRNA transfection of HEK293 cells
Type: cell-based
Settings: EGFP mRNA 50 ng per well, 96-well plates; percentage of GFP fluorescent cells relative to total number of cells (Hoechst)
Procedure: Cell line: HEK293 cells (ATCC CRL-1573™)
Medium: DMEM supplemented with 10% fetal bovine serum (Invitrogen)
Screening: cell transfection on 96-well plates
Detection (readout): percentage of the number of GFP fluorescent cells relative to the total number of cells (the total number of cells was determined using nucleus dye Hoechst). Lipofectamine2000 (Invitrogen) was used as the positive control.
Method: the experimental method was basically the same with Example 4, and the mass of EGFP mRNA (TriLink) for transfection was 50 ng per well.

| Structure (SMILES) | Absolute mRNA transfection efficiency in HEK293 cells [%] |
| --- | --- |
| CCCCCCCCCCCCCCCCCCSc1nc(NCCCCCCCCCCC)nc(NCCN(CC)CC)n1 [Compound D7S18N11] | 10.7 |
| CCCCCCCCCCCCNc1nc(NCCN2CCCCC2)nc(SCCCCCC)n1 [Compound D4S6N12] | 0.7 |
| CCCCCCCCCCCNc1nc(NCCCN2CCN(C)CC2)nc(SCCCCCCCC)n1 [Compound D9S8N11] | 81.7 |
| CCCCCCCCCCCCN(CCCCCCCCCCCC)c1nc(NCCN2CCCCC2)nc(SCCCCCCC)n1 [D4S7^2N12] | 1.0 |
| CCCCCCCCCCCCCNc1nc(NCC2CCN(C)CC2)nc(SCCCCCC)n1 [Compound D10S6N13] | 22.7 |
| CCCCCCCCCCCCCCCSc1nc(NCCN(CC)CC)nc(SCCCCCCC)n1 [Compound D7S7S15] | 5.4 |
| CCCCCCCCCCCCN(CCCCCCCCCCCC)c1nc(NCCN2CCOCC2)nc(SCCCCCCCC)n1 [D2S8^2N12] | 0.1 |
| CCCCCCCCCCCNc1nc(NCCN2CCCC2)nc(SCCCCCCCCCC)n1 [Compound D3S10N11] | 17.1 |
| CCCCCCCCCCCCCCCCCCNc1nc(NCCCN(C)C)nc(SCCCCCCCCCC)n1 [Compound D6S10N18] | 31.8 |
| CCCCCCCCCCCCCCCSc1nc(NCCN2CCCCC2)nc(SCCCCCC)n1 [Compound D4S6S15] | 2.0 |
| CCCCCCCCCCCCCCCCCCNc1nc(NCCN(C)C)nc(SCCCCCCCCCCCCCC)n1 [Compound D1S14N18] | 1.8 |
| CCCCCCCCCCCCCCCCNc1nc(NCCN(C)C)nc(SCCCCCCCC)n1 [Compound D1S8N16] | 22.5 |
| CCCCCCCCCCCCCCCCNc1nc(NCCN2CCCCC2)nc(SCCCCCCCCCCCC)n1 [Compound D4S12N16] | 1.3 |
| CCCCCCCCCCCCCCCCNc1nc(NCCN2CCN(C)CC2)nc(SCCCCCCCCCCCC)n1 [Compound D5S12N16] | 3.7 |
| CCCCCCCCSc1nc(NCCN2CCN(C)CC2)nc(SCCCCCC)n1 [Compound D5S6S8] | 8.7 |
| CCCCCCCCCCCCCCCCNc1nc(NCCN2CCCCC2)nc(SCCCCCCCC)n1 [Compound D4S8N16] | 1.9 |
| CCCCCCCCCCCCCCCCNc1nc(NCCN(CC)CC)nc(SCCCCCCCCCCCCCC)n1 [Compound D7S14N16] | 2.7 |
| CCCCCCCCCCCCCCCCSc1nc(NCC2CCN(C)CC2)nc(SCCCCCC)n1 [Compound D10S6S16] | 85.5 |
| CCCCCCCCCCCCCCSc1nc(NCCN2CCN(C)CC2)nc(SCCCCCC)n1 [Compound D5S6S14] | 45.3 |
| CCCCCCCCCCCCCCCNc1nc(NCCCN2CCOCC2)nc(SCCCCCCCCCCC)n1 [Compound D8S11N15] | 0.5 |
| CCCCCCCCCCCNc1nc(NCCN2CCN(C)CC2)nc(SCCCCCCC)n1 [Compound D5S7N11] | 8.2 |
| CCCCCCCCCCCCSc1nc(NCCCCCCCCC)nc(NCCN2CCCC2)n1 [Compound D3S12N9] | 39.9 |
| CCCCCCCCNc1nc(NCCN2CCOCC2)nc(SCCCCCCC)n1 [Compound D2S7N8] | 1.0 |
| CCCCCCCCCCCSc1nc(NCCN2CCCCC2)nc(SCCCCCCC)n1 [Compound D4S7S11] | 8.0 |
| CCCCCCCCCCCSc1nc(NCCN(C)C)nc(SCCCCCCC)n1 [Compound D1S7S11] | 4.1 |

| Structure (SMILES) | Absolute mRNA transfection efficiency in HEK293 cells [%] |
| --- | --- |
| CCCCCCCCCCCCCCCNc1nc(NCCCN2CCOCC2)nc(SCCCCCCCCCC)n1 [Compound D8S10N15] | 0.2 |
| CCCCCCCCCCCCNc1nc(NCCCN2CCN(C)CC2)nc(SCCCCCCCCCC)n1 [Compound D9S10N12] | 6.0 |
| CCCCCCCCCCCNc1nc(NCCN2CCN(C)CC2)nc(SCCCCCCCCC)n1 [Compound D5S9N11] | 32.1 |
| CCCCCCCCCCCCNc1nc(NCCCN(C)C)nc(SCCCCCCCC)n1 [Compound D6S8N12] | 46.0 |
| CCCCCCCCCCCCCCCSc1nc(NCCCCCCC)nc(NCCCN(C)C)n1 [Compound D6S15N7] | 46.1 |
| CCCCCCCCCCCCCCCNc1nc(NCCCN2CCN(C)CC2)nc(SCCCCCCCCCCCC)n1 [Compound D9S12N15] | 0.0 |
| CCCCCCCCNc1nc(NCCN(C)C)nc(SCCCCCCCC)n1 [Compound D1S8N8] | 5.8 |
| CCCCCCCNc1nc(NCCN2CCOCC2)nc(SCCCCCC)n1 [Compound D2S6N7] | 2.7 |
| CCCCCCCCCCCCCCCCCCNc1nc(NCCCN2CCN(C)CC2)nc(SCCCCCCCCCCCCCC)n1 [Compound D9S14N18] | 0.3 |
| CCCCCCCCCCCCCCCCCCSc1nc(NCCCCCCCCCCC)nc(NCCN2CCCC2)n1 [Compound D3S18N11] | 30.9 |
| CCCCCCCCCCCCCCCCCCSc1nc(NCCCN2CCOCC2)nc(SCCCCCCC)n1 [Compound D8S7S18] | 26.7 |
| CCCCCCCCCCCCN(CCCCCCCCCCCC)c1nc(NCC2CCN(C)CC2)nc(SCCCCCC)n1 [D10S6^2N12] | 0.1 |
| CCCCCCCCCSc1nc(NCCCCCCC)nc(NCCCN(C)C)n1 [Compound D6S9N7] | 1.2 |
| CCCCCCCCCCCCCCCCSc1nc(NCCCCCCCCC)nc(NCCCN2CCOCC2)n1 [Compound D8S16N9] | 2.1 |
| CCCCCCCCCCCCNc1nc(NCCCN2CCOCC2)nc(SCCCCCCCCCCC)n1 [Compound D8S11N12] | 1.0 |
| CCCCCCCCCCCCSc1nc(NCCCN2CCN(C)CC2)nc(SCCCCCC)n1 [Compound D9S6S12] | 1.0 |
| CCCCCCCCCCCCSc1nc(NCCCCCCCC)nc(NCCN2CCN(C)CC2)n1 [Compound D5S12N8] | 22.6 |
| CCCCCCCCCCCCCNc1nc(NCCN2CCCCC2)nc(SCCCCCCC)n1 [Compound D4S7N13] | 0.7 |
| CCCCCCCCCCCCCCSc1nc(NCCN(CC)CC)nc(N(CCCCCCCCCCCC)CCCCCCCCCCCC)n1 [D7S14^2N12] | 0.1 |
| CCCCCCCCCCCCCCCCCCNc1nc(NCCN2CCOCC2)nc(SCCCCCCCCCCCCCCCC)n1 [Compound D2S16N18] | 0.0 |
| CCCCCCCCCCCCCCCSc1nc(NCCCCCCC)nc(NCCN2CCOCC2)n1 [Compound D2S15N7] | 4.5 |
| CCCCCCCCCCCNc1nc(NCCN(C)C)nc(SCCCCCCCC)n1 [Compound D1S8N11] | 9.0 |
| CCCCCCCCCCCCSc1nc(NCCCCCCC)nc(NCCN(C)C)n1 [Compound D1S12N7] | 1.5 |
| CCCCCCCSc1nc(NCCN2CCCCC2)nc(SCCCCCCC)n1 [Compound D4S7S7] | 13.5 |
